What was measured:
Assay type in all cases: in vivo, human
[1] = tested on: relapsing-remitting multiple sclerosis; experiment: Disability and questionnaire outcomes (EDSS, MFIS, BDI, MSQOL); conditions: for Proportion of pts with disability (EDSS) progression at 24 months % (95% CI): Kaplan-Meier
Description: EDSS assessments were performed by physicians who were trained either by in-person training or online (www.Neurostatus.net). […] Tertiary end points included gray matter atrophy on MRI, and changes in results from baseline on questionnaires including the Modified Fatigue Impact Scale, Beck Depression Inventory, and MS Quality of Life. Mixed effects negative binomial regression model and linear mixed effects model were used to compare enhancing lesion volume (log-transformed) between treatment groups at all follow-ups, and mixed effects logistic model was used to compare the number of subjects positive for gadolinium enhancing lesions. Linear mixed effects model was carried out to compare the percent change in whole gray matter and cortical gray matter between treatment groups.

[2] = tested on: relapsing-remitting multiple sclerosis; experiment: Multiple Sclerosis Functional Composite (PASAT3, 9-hole peg, 25-foot walk); design: PASAT3 score, Mean ± SD / PASAT3 score, Median / PASAT3 score change from baseline, Mean ± SD / PASAT3 score change from baseline, Median: scale not given here; 25-foot Walk Time change from baseline, Mean ± SD / 25-foot Walk Time change from baseline, Median: unit not given here
Text: Tertiary end points included gray matter atrophy on MRI, and changes in results from baseline on questionnaires including the Modified Fatigue Impact Scale, Beck Depression Inventory, and MS Quality of Life. Mixed effects negative binomial regression model and linear mixed effects model were used to compare enhancing lesion volume (log-transformed) between treatment groups at all follow-ups, and mixed effects logistic model was used to compare the number of subjects positive for gadolinium enhancing lesions. Linear mixed effects model was carried out to compare the percent change in whole gray matter and cortical gray matter between treatment groups. […] Mixed effects models were used to assess the association among outcomes and estriol levels at all follow-ups and using subjects in both treatment groups. Mixed effects logistic regression model was used to evaluate the association between the number of enhancing lesions and the occurrence of relapse at all follow-up intervals. Linear mixed effects model was carried out to evaluate the association between PASAT change and percent brain volume change, as well as between PASAT change and estriol levels.

[3] = tested on: relapsing-remitting multiple sclerosis; experiment: Gadolinium enhancing lesions on brain MRI; design: Enhancing lesion volume, mean ± SD: unit not given here
Description: Mixed effects negative binomial regression model and linear mixed effects model were used to compare enhancing lesion volume (log-transformed) between treatment groups at all follow-ups, and mixed effects logistic model was used to compare the number of subjects positive for gadolinium enhancing lesions. Linear mixed effects model was carried out to compare the percent change in whole gray matter and cortical gray matter between treatment groups. For the exploratory endpoints of EDSS, PASAT, fatigue, depression, quality of life and brain volume measures, linear mixed effects model was used to compare treatment groups at 12 and 24 months.
Dual-echo fast spin echo: TR10000, TE12/95, 50 slices, 1×1×3 mm. Fluid attenuated inversion recovery (FLAIR): TR10380, TE88, TI88, TI2500, 50 slices, 1×1×3 mm. Minor changes were allowed to accommodate different platforms and field strengths at each site. MRI data in Dicom format were fully anonymized prior to transfer and then uploaded to the central MRI reading center database. Prior to study onset, each site provided a dummy scan utilizing the standardized sequences for review by the central MRI reading center to verify scan quality and fidelity. Quality control was maintained at each site using standard procedures for clinical scanners (daily phantoms, stability testing). Quarterly phantoms were collected from 12 of the 15 sites, most using the standard American College of Radiology (ACR) phatom. One site upgraded from a Siemens 1.5T to a 3.0T in November 2013, resulting in the acquisition of one month 24 scan on the new scanner. One site upgraded from a Phillips Achieva 3.0T to a Pillips Intera 3.0T after the first subject completed month 24. All subsequent studies were performed on the Intera.
Analysis of gadolinium enhancing lesions and T2 lesions were performed as described by Sicotte et al. (Ann. Neurology 52:421 (2002)). Briefly, MRI data was coded by study site and randomization number. The number and volume of enhancing lesions were quantified on the post contrast T1 weighted scans by an experienced investigator who was blind to treatment group using a semi-automated threshold-based algorithm. To assess T2 lesions, all FLAIR images were RF corrected, then intensity normalized and registered into a common space defined by the baseline scan for each individual. All subsequent scans were registered to the baseline exam for spatial normalization using a rigid body model. T2 lesion areas were determined using a semi-automated intensity based segmentation procedure by a trained, experienced researcher verified by a single investigator (NLS).

[4] = 24 months, negative = improvement
[5] = Month 24 (second line, N = 60 / 55)
[6] = Month 24 as printed (first of two lines, N = 70 / 60)
[7] = Patients with baseline score <55, Baseline
[8] = Patients with baseline score <55, Month 12
[9] = Patients with baseline score <55, Month 24

Substance: glatiramer acetate [Placebo + GA]
- Beck Depression Inventory (BDI) score median change from baseline [1, 4]: −3.5
- MFIS score median change from baseline [1, 4]: 0
- Proportion of pts with disability (EDSS) progression at 24 months % (95% CI) [1]: 15.8 (8.8-27.6) %
- Proportion of pts with disability (EDSS) progression at 24 months % (95% CI) ([1]; listed as Placebo plus GA): 15.8%
- MSQOL composite scores for Physical outcomes ([1]; change from baseline): no change
- EDSS score reduction from baseline to Month 24, Mean ± SD ([1]; in vivo): 0.05 ± 1.13
- EDSS score reduction from baseline to Month 24, Median ([1]; in vivo): 0.0
- EDSS absolute median change from baseline ([1]; month 24, negative = improvement): 0
- PASAT3 score, Mean ± SD ([2]; All patients, Baseline): 52.3 ± 9.1
- PASAT3 score, Median ([2]; All patients, Baseline): 56
- PASAT3 score % change from baseline, Mean ± SD ([2]; All patients, Month 12): 0.8 ± 9.9%
- PASAT3 score % change from baseline, Median ([2]; All patients, Month 12): 0%
- PASAT3 score change from baseline, Mean ± SD ([2]; All patients, Month 12): 0.1 ± 4.5
- PASAT3 score change from baseline, Median ([2]; All patients, Month 12): 0
- PASAT3 score % change from baseline, Mean ± SD ([2]; All patients, Month 24): 2.7 ± 10.3%
- PASAT3 score % change from baseline, Median ([2]; All patients, Month 24): 0%
- PASAT3 score change from baseline, Mean ± SD ([2]; All patients, Month 24): 1.1 ± 4.3
- PASAT3 score change from baseline, Median ([2]; All patients, Month 24): 0
- 9-Hole Peg Test, Mean ± SD ([2]; Baseline): 19.1 ± 2.7
- 9-Hole Peg Test, Median ([2]; Baseline): 18.8
- 25-foot Walk Time, Median ([2]; Baseline): 4.5 s
- MSFC Score, Mean ± SD ([2]; Baseline): 0.06 ± 0.79
- MSFC Score, Median ([2]; Baseline): 0.24
- 25-foot Walk Time, Mean ± SD ([2]; Baseline, in s (unit assumed)): 4.9 ± 1.5
- 9-Hole Peg Test change from baseline, Mean ± SD ([2]; Month 12): −0.1 ± 1.8
- 9-Hole Peg Test change from baseline, Median ([2]; Month 12): −0.4
- MSFC Score change from baseline, Mean ± SD ([2]; Month 12): 0.06 ± 0.38
- 9-Hole Peg Test change from baseline, Mean ± SD ([2]; Month 24): −0.4 ± 1.5
- 9-Hole Peg Test change from baseline, Median ([2]; Month 24): −0.5
- MSFC Score change from baseline, Mean ± SD ([2]; Month 24): 0.09 ± 0.43
- 25-foot Walk Time change from baseline, Mean ± SD [2, 5]: 0.1 ± 1.1
- 25-foot Walk Time change from baseline, Median [2, 5]: 0.1
- 25-foot Walk Time change from baseline, Mean ± SD [2, 6]: 0.0 ± 0.9
- 25-foot Walk Time change from baseline, Median [2, 6]: 0.0
- PASAT3 score, Mean ± SD [2, 7]: 44.7 ± 9.1
- PASAT3 score, Median [2, 7]: 49
- PASAT3 score % change from baseline, Mean ± SD [2, 8]: 4.0 ± 14.0%
- PASAT3 score % change from baseline, Median [2, 8]: 3.8%
- PASAT3 score change from baseline, Mean ± SD [2, 8]: 1.6 ± 6.0
- PASAT3 score change from baseline, Median [2, 8]: 1.0
- PASAT3 score % change from baseline, Mean ± SD [2, 9]: 6.9 ± 14.7%
- PASAT3 score % change from baseline, Median [2, 9]: 9.1%
- PASAT3 score change from baseline, Mean ± SD [2, 9]: 3.0 ± 5.9
- PASAT3 score change from baseline, Median [2, 9]: 4.0
- Enhancing lesion volume, mean ± SD ([3]; Baseline): 49.9 ± 121.2
- Enhancing lesion volume, median ([3]; Baseline): 0
- Percentage patients with enhancing lesions % (95% CI) ([3]; Baseline): 29.3 (19.0-39.6) %
- Enhancing lesion volume, mean ± SD ([3]; Month 12): 27.4 ± 147.2
- Enhancing lesion volume, median ([3]; Month 12): 0
- Percentage patients with enhancing lesions % (95% CI) ([3]; Month 12): 21.0 (10.8-31.1) %
- Enhancing lesion volume, mean ± SD ([3]; Month 24): 17.9 ± 71.1
- Enhancing lesion volume, median ([3]; Month 24): 0
- Percentage patients with enhancing lesions % (95% CI) ([3]; Month 24): 14.6 (5.2-23.9) %
- Decrease in enhancing lesion volumes ([3]; month 12 vs baseline): 45%
